Data: article PMC13185115, “Photovermellogens: Minimalistic Pyridinium-Based Acylhydrazones with Photoswitchable Basicity for Operation in Aqueous Media” (The Journal of Organic Chemistry, 2026)

Columns and labels:
Assay type in all cases: physicochemical
[1] = Thermal Z-PH+ to E-PH+ back-isomerization kinetics; settings: Arrhenius analysis, 47, 55 and 64 °C, from 254 nm photostationary state
Source text: Photoisomerization studies were subsequently carried out in acidic medium (pH = pK a – 2) in order to assess the photoresponse of the protonated species. Under these conditions, the anticipated photoisomerization of the thermally stable E-P a–dH^+ species was investigated by UV–vis absorption spectroscopy under irradiation at 254 nm. […] It is noteworthy that the irradiation wavelength can be extended to 365 nm, yielding virtually the same observations as for 254 nm irradiation (see footnotes of Table ). Irradiation also produced clear NMR spectral changes that support the occurrence of the E→Z isomerization. In essence, the signals Hf–h of the phenyl moiety were only slightly affected, whereas those of the pyridinium and acylhydrazone fragments shifted markedly, consistent with the formation of an intramolecular hydrogen bond in the Z-P a–cH^+ species. The reverse Z→E transformation of the protonated forms P a–cH^+ was also achieved upon irradiation at λ > 420 nm, giving lower quantum yields and less favorable PSDs (Figures S145–S147, S149–154, S1).
5.5. Z-P a-cH+→E-P a-cH+ thermal back-isomerization kinetics.
Figure S155. Absorption spectrum variation during 48h at room temperature from the PSS reached for P aH·Cl (7µM, pH 6, Red) state during 48h. E-isomer absorption spectrum in green.
Even though the kinetics has not been fully completed, it can be observed that it occurs much more slowly than photochemical processes.
To obtain an estimation of P aH·Cl Z→E thermal half-live at room temperature, the Z →E thermal reversion kinetics were monitored starting from the 254nm photostationary state at different temperatures (47, 55 and 64 °C). By tracking the absorbance changes at 420 nm, an Arrhenius analysis was performed, allowing the determination of the activation energy (EA) and the estimation of the thermal half-life at 25 °C.

[2] = Thermal Z-P to E-P isomerization of the kinetically trapped conjugate bases at pH 13; settings: 26 µM, pH 13, room temperature, monitored at 429 nm
Source text: Having confirmed the photochemical behavior of the protonated forms, we next explored their light-responsiveness in the deprotonated state. […] To probe whether Z-P a–c could nonetheless be generated indirectly, we explored a consecutive photoisomerization–deprotonation sequence. Thus, E-P a–cH^+ was first irradiated at 254 nm and pH 6 to enrich the Z population, followed by immediate adjustment of the solution to pH 13. Under these conditions, transient spectroscopic features were observed, consistent with the kinetic trapping of the metastable Z-P a–c species. […]
To gain further insight into the behavior of the metastable Z-bases, absorbance changes of the kinetically trapped state were monitored over time in the dark for the whole P a–c series. […]
(§1) Figure S169. […] Right: Kinetics (monitored at 429 nm) of the isomerization of Z-P a to E-P a (26 µM) at room temperature. k = 7.2 × 10 –4 s–1.
(§2) Figure S170. […] Right: Kinetics (monitored at 429 nm) of the photoisomerization of Z-P a to E-P a (26 µM) upon irradiation at >495 nm. k = 2.5 × 10 –3 s–1. […]
is in blue. Right: Kinetics (monitored at 456 nm) of the isomerization of Z-P b to E-P b (15 µM) at room temperature. k = 8.9 × 10 –5 s–1. […]
is in blue. Right: Kinetics (monitored at 432 nm) of the isomerization of Z-P c to E-P c (16 µM) at room temperature. k = 8.4 × 10 –5 s–1.

[3] = Irradiation of the conjugate bases (E→Z attempt; Z→E at >495 nm); settings: 26 µM, pH 13, irradiation at >495 nm, monitored at 429 nm
Source text: Having confirmed the photochemical behavior of the protonated forms, we next explored their light-responsiveness in the deprotonated state. […] To probe whether Z-P a–c could nonetheless be generated indirectly, we explored a consecutive photoisomerization–deprotonation sequence. Thus, E-P a–cH^+ was first irradiated at 254 nm and pH 6 to enrich the Z population, followed by immediate adjustment of the solution to pH 13. Under these conditions, transient spectroscopic features were observed, consistent with the kinetic trapping of the metastable Z-P a–c species. […] These spectroscopic observations enabled the estimation of virtual pK a values for the Z-enriched solutions (Table and Figures S163–168, SI1), which confirmed the reduced acidity of the NH group in the Z-isomers, presumably arising from intramolecular hydrogen-bond formation.
To gain further insight into the behavior of the metastable Z-bases, absorbance changes of the kinetically trapped state were monitored over time in the dark for the whole P a–c series.
7. Thermal Z-P a-c→E-P a-c isomerizations from the PSS […]
as §1, §2

activation energy E A of thermal Z→E reversion [1] | SMILES | k thermal isomerization Z-P to E-P [2] | k photoisomerization Z-P to E-P [3]
17.4 kcal·mol^–1 | C[n+]1ccc(N/N=C\C(=O)c2ccccc2)cc1 [Z-P aH^+] | – | –
– | C[n+]1ccc([N-]/N=C\C(=O)c2ccccc2)cc1 [Z-P a] | 7.2 10^–4 s^–1 | 2.5 10^–3 s^–1
